Test system: human myeloma cell line MM.1S
Experiment: SILAC acetylated-lysine peptide profiling, HDAC inhibitor vs DMSO (light/heavy ratio)
Assay type: cell-based
Excerpt: An embodiment of the invention comprises utilizing the SILAC method in order to quantitate changes in protein expression between two or more populations of cells. The SILAC method is a technique based on mass spectrometry that detects differences in protein abundance among samples using non-radioactive isotopic labeling. The SILAC method is known in the art, and described in detail in Ong et al., “Stable Isotope Labeling by Amino Acids in Cell Culture, SILAC, as a Simple and Accurate Approach to Expression Proteomics”, Molecular & Cellular Proteomics, vol. 1, pp. 376-386 (2002), which is incorporated herein by reference in its entirety.
Briefly, the SILAC method involves growing two populations of cells in cell culture. The first population of cells is grown in growth media containing normal amino acids (“normal media”). The second population of cells is grown in media lacking a standard essential amino acid (such as lysine), but is then supplemented with a non-radioactive, isotopically labeled form of that essential amino acid (such as lysine labeled with ^13C atoms, rather than normal ^12C atoms), which is called “heavy media”. When the two populations of cells are each growing in the medium, they incorporate the amino acids into all of their proteins. The growth of cells maintained in the heavy media is no different from that in normal media. All peptides containing the heavy amino acids are heavier than their normal counterparts. The cells from each of the two populations of cells are lysed. The lysates from each of the two cell populations are then combined. The combined cell lysates are then analyzed by mass spectrometry. Pairs of chemically identical peptides of different stable isotope composition can be differentiated in a mass spectrometer due to their difference in mass. The ratio of peak intensities in the mass spectrum for such peptide pairs reflects the abundance ratio for the two proteins.
This example describes SILAC studies that were performed to compare the effects of three different HDAC inhibitors (Compound A, Compound B, and tubastatin A) to a control on a human multiple myeloma cell line. The HDAC inhibitors were also compared amongst themselves to determine differences in their effects.
A human myeloma cell line MM.1S was grown using either ^12C (light) or ^13C (heavy) lysine containing culture medium. The “heavy” cells were treated with DMSO as the control, and the “light” cells were treated with a single HDAC inhibitor at 37° C. for 6 hours. The heavy and light cells were lysed, and the lysates were mixed in 1:1 ratio and digested with the protease trypsin. The acetylated lysine containing peptides (due to the action of the HDAC inhibitor) in the digested peptide pool were captured by a non-specific anti-acetylated lysine antibody cocktail (the antibodies identify both light and heavy acetylated peptides), and subjected to mass spectrometry analysis in order to identify thousands of individual peptides.
Thousands of peptides were identified in pairs (^12C and ^13C) due to their known mass differences. The amino acid sequence and quantitative ratio (Light/Heavy) of a given peptide in two differentially treated cell lysates were then determined and annotated with their possible protein (gene) sources.
As stated above, three HDAC inhibitors (Compound A, Compound B, and Tubastatin A) were used. Thus, the SILAC method was performed three times, with a different HDAC inhibitor compared to a control each time. Accordingly, there are three pairs of quantitative data in the table below, i.e., Compound A:DMSO, Compound B:DMSO, and Tubastatin A:DMSO. A cut-off of 1.30 fold of change (increase or decrease) was then used to determine “changed” or “+” in the table, and any peptides with a fold of change less than 1.3 fold were determined to be “unchanged” or “0” in the table. Those peptides that were not identified were marked as “NA” in the table. […]

O=C(CCCCCCNC(=O)c1cnc(N(c2ccccc2)c2ccccc2)nc1)NO [Compound A, 2-(diphenylamino)-N-(7-(hydroxyamino)-7-oxoheptyl)pyrimidine-5-carboxamide]
L/H ratio of acetylated peptide TVGQLYK(ac)EQLAK (SEQ ID NO: 731, Isoform 1 of Myosin-9 [651], MYH9): 0.75 log 2
L/H ratio of acetylated peptide AAETCQEPK(ac)EFR (SEQ ID NO: 732, NADH dehydrogenase [ubiquinone] 1 alpha subcomplex assembly factor 4 [91], NDUFAF4): 0.75 log 2
L/H ratio of acetylated peptide VVLIGDSGVGK(ac)SNLLSR (SEQ ID NO: 733, Ras-related protein Rab-11B [24], RAB11B): 0.76 log 2
L/H ratio of acetylated peptide SGK(ac)YVLGYK (SEQ ID NO: 734, 60S ribosomal protein L30 [26], RPL30): 0.76 log 2
L/H ratio of acetylated peptide ILMEHIHK(ac)LK (SEQ ID NO: 735, 60S ribosomal protein L19 [144], RPL19): 0.76 log 2
L/H ratio of acetylated peptide EK(ac)VFYSLMR (SEQ ID NO: 736, Epoxide hydrolase 1 [288], EPHX1): 0.78 log 2
L/H ratio of acetylated peptide K(ac)FDQLLAEEK (SEQ ID NO: 737, Isoform 1 of Myosin-9 [1445], MYH9): 0.78 log 2
L/H ratio of acetylated peptide FVEFDMK(ac)PVCK (SEQ ID NO: 738, Isoform 2 of LIM and senescent cell antigen-like-containing domain protein 2 [326], LIMS2): 0.79 log 2
L/H ratio of acetylated peptide K(ac)GFITVDGR (SEQ ID NO: 739, Laminin subunit alpha-1 [2808], LAMA1): 0.79 log 2
L/H ratio of acetylated peptide KAEAQIAAK(ac)NLDK (SEQ ID NO: 740, Aspartate aminotransferase mitochondrial [90], GOT2): 0.80 log 2
L/H ratio of acetylated peptide DK(ac)QFVAK (SEQ ID NO: 741, Staphylococcal nuclease domain-containing protein 1 [341], SND1): 0.80 log 2
L/H ratio of acetylated peptide AGACNTVIK(ac)QLMR (SEQ ID NO: 742, Isoform SERCA3B of Sarcoplasmic/endoplasmic reticulum calcium ATPase 3 [476], ATP2A3): 0.82 log 2
L/H ratio of acetylated peptide KQQAK(ac)FDECVLDK (SEQ ID NO: 743, NADH dehydrogenase [ubiquinone] 1 alpha subcomplex subunit 8 [106], NDUFA8): 0.82 log 2
L/H ratio of acetylated peptide ALCTGEK(ac)GFGYK (SEQ ID NO: 744, Peptidyl-prolyl cis-trans isomerase F mitochondrial [86], PPIF): 0.82 log 2
L/H ratio of acetylated peptide IYK(ac)SDGIK (SEQ ID NO: 745, ADP/ATP translocase 2 [166], SLC25A5): 0.83 log 2
L/H ratio of acetylated peptide DEGGK(ac)AFFK (SEQ ID NO: 746, ADP/ATP translocase 2 [268], SLC25A5): 0.84 log 2
L/H ratio of acetylated peptide SYLK(ac)EFR (SEQ ID NO: 747, Isoform 1 of Trans-23-enoyl-CoA reductase [291], TECR): 0.85 log 2
L/H ratio of acetylated peptide VPK(ac)TAENFR (SEQ ID NO: 748, Peptidyl-prolyl cis-trans isomerase D [43], PPID): 0.85 log 2
L/H ratio of acetylated peptide VNCLDK(ac)FWHK (SEQ ID NO: 749, Isoform 1 of LIM and SH3 domain protein 1 [23], LASP1): 0.85 log 2
L/H ratio of acetylated peptide KGEDFVK(ac)TLK (SEQ ID NO: 750, Malate dehydrogenase mitochondrial [335], MDH2): 0.85 log 2
L/H ratio of acetylated peptide EAEFTK(ac)SIAK (SEQ ID NO: 751, Signal peptidase complex subunit 2 [191], LOC653566, SPCS2): 0.86 log 2
L/H ratio of acetylated peptide SGYYK(ac)VLGK (SEQ ID NO: 752, 60S ribosomal protein L27a [110], RPL27A): 0.86 log 2
L/H ratio of acetylated peptide YVLGYK(ac)QTLK (SEQ ID NO: 753, 60S ribosomal protein L30 [32], RPL30): 0.87 log 2
L/H ratio of acetylated peptide FEDK(ac)TVAYTEQK (SEQ ID NO: 754, Protein disulfide-isomerase A3 [218], PDIA3): 0.88 log 2
L/H ratio of acetylated peptide IVNALK(ac)SQVDK (SEQ ID NO: 755, Ornithine aminotransferase mitochondrial [102], OAT): 0.88 log 2
L/H ratio of acetylated peptide ILEFFGLK(ac)K (SEQ ID NO: 756, Protein disulfide-isomerase [308], P4HB): 0.89 log 2
L/H ratio of acetylated peptide LCGQDLNK(ac)TSR (SEQ ID NO: 757, Isoform 1 of UDP-N-acetylglucosamine--dolichyl-phosphate N-acetylglucosaminephospho-, DPAGT1): 0.89 log 2
L/H ratio of acetylated peptide (SFDK(ac)NLYR (SEQ ID NO: 477), DNA replication licensing factor MCM4 [220], MCM4): −0.55 log 2
L/H ratio of acetylated peptide LFAK(ac)[…] (SEQ ID NO: 98) (SFPQ [319], log 2 scale, drug vs DMSO): 0.00
L/H ratio of acetylated peptide […](ac)GK (SEQ ID NO: 99) (SFPQ [330], log 2 scale, drug vs DMSO): 0.00
L/H ratio of acetylated peptide GFGFIK(ac)LESR (SEQ ID NO: 97) (SFPQ [338], log 2 scale, drug vs DMSO): 0.00
L/H ratio of acetylated peptide […](ac)MILIGR (SEQ ID NO: 100) (SFXN1 [86], log 2 scale, drug vs DMSO): 0.00
L/H ratio of acetylated peptide […](ac)DK (SEQ ID NO: 103) (SLC25A5 [92], log 2 scale, drug vs DMSO): 0.00
L/H ratio of acetylated peptide AFFK(ac)GAWSNVLR (SEQ ID NO: 102) (SLC25A5 [272], log 2 scale, drug vs DMSO): 0.00
L/H ratio of acetylated peptide […](ac)ANVAK (SEQ ID NO: 101) (SLC25A10 [173], log 2 scale, drug vs DMSO): 0.00
L/H ratio of acetylated peptide TWEK(ac)LLLAAR (SEQ ID NO: 104) (SNORA6, RPSAP15, SNORA62, RPSA [57], log 2 scale, drug vs DMSO): 0.00

— patent publication US20140357512A1, “HISTONE DEACETYLASE (HDAC) BIOMARKERS IN MULTIPLE MYELOMA” (priority 2013, published 2014)
